*1 amine or outer side, *2 acyl side, *3 side chain or, on linkers, in order; H or OH if unused. Where a SMILES comes first, the peptide text is derived from it. [ ]: non-standard residue; d: D form. The star is where a group is joined. Abu(ψCOCO) = CC[C@H](N[*:1])C(=O)C(=O)[*:2]; X1 = O=C(C(=O)[*:2])[C@H](CC(F)F)N[*:1]; Pyrazinecarbonyl = O=C(c1cnccn1)*; Cha = N[C@@H](CC1CCCCC1)C(=O)O

Chain of NS3 (A3EZJ3 whole entry): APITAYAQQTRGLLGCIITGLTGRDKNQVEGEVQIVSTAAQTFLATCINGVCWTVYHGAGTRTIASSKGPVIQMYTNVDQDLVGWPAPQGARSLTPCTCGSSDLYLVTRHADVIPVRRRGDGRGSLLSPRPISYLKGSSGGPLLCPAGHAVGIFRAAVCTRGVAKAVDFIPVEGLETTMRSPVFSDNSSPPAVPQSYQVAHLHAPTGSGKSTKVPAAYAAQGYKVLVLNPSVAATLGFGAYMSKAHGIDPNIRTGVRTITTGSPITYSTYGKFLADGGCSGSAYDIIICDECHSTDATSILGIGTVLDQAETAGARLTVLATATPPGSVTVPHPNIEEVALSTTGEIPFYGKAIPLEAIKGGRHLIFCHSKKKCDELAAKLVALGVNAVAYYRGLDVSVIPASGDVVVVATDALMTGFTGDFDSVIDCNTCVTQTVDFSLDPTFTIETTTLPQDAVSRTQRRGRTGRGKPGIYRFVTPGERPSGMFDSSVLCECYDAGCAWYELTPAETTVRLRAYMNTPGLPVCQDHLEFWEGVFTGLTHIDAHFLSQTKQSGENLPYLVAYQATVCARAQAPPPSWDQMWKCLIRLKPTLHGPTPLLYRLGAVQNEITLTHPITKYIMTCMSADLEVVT

This test has as its target NS3 (Hepatitis C virus, UniProt A3EZJ3). Nature of the test: Inhibitory concentration against glycine alpha-ketoamide HCV NS3 protease. Further details: species or system Hepacivirus hominis.
The compound `CC[C@H](NC(=O)[C@H](CC1CCCCC1)NC(=O)[C@@H](NC(=O)[C@H](CC(C)C)NC(=O)c1cnccn1)[C@@H](C)CC)C(=O)C(=O)NCC(=O)NS(=O)(=O)c1cc(C(=O)O)ccc1Cl` came in with an IC50 of 0.11 µM.

In the case of `CC[C@H](NC(=O)[C@H](CC1CCCCC1)NC(=O)[C@@H](NC(=O)[C@H](CC(C)C)NC(=O)c1cnccn1)[C@@H](C)CC)C(=O)C(=O)NCC(=O)NS(=O)(=O)c1cc(Cl)cc(Cl)c1`, the IC50 amounted to 0.13 µM.

Compound `CC[C@H](NC(=O)[C@H](CC1CCCCC1)NC(=O)[C@@H](NC(=O)[C@H](CC(C)C)NC(=O)c1cnccn1)[C@@H](C)CC)C(=O)C(=O)NCC(=O)NS(=O)(=O)c1cccc(Cl)c1` displayed a 50% inhibitory concentration (IC50) of 0.25 µM. This IC50 is about 1.9-fold higher than that of the compound before.

The compound `CC[C@H](NC(=O)[C@H](CC1CCCCC1)NC(=O)[C@@H](NC(=O)[C@H](CC(C)C)NC(=O)c1cnccn1)[C@@H](C)CC)C(=O)C(=O)NCC(=O)NS(=O)(=O)c1ccc2ccccc2c1` returned an IC50 of 1.2 µM.

In the case of `CC[C@H](C)[C@H](NC(=O)[C@H](CC(C)C)NC(=O)c1cnccn1)C(=O)N[C@@H](CC1CCCCC1)C(=O)N[C@@H](CC(F)F)C(=O)C(=O)NCC(=O)NS(=O)(=O)c1cc(Cl)cc(S(N)(=O)=O)c1`, the half-maximal inhibitory concentration (IC50) is 0.05 µM.

The compound `CC[C@H](C)[C@H](NC(=O)[C@H](CC(C)C)NC(=O)c1cnccn1)C(=O)N[C@@H](CC1CCCCC1)C(=O)N[C@@H](CC(F)F)C(=O)C(=O)NCC(=O)NS(=O)(=O)c1cc(Cl)cc(S(=O)(=O)NC(=O)c2ccccc2)c1` gave an IC50 of 0.06 µM.

`CC[C@H](NC(=O)[C@H](CC1CCCCC1)NC(=O)[C@@H](NC(=O)[C@H](CC(C)C)NC(=O)c1cnccn1)[C@@H](C)CC)C(=O)C(=O)NCC(=O)NS(=O)(=O)C(F)(F)F`: the midpoint of inhibition, the IC50, lay at 0.47 µM.

The compound `CC[C@H](NC(=O)[C@H](CC1CCCCC1)NC(=O)[C@@H](NC(=O)[C@H](CC(C)C)NC(=O)c1cnccn1)[C@@H](C)CC)C(=O)C(=O)NCC(=O)NS(=O)(=O)c1nnc(NC(C)=O)s1` had a half-inhibitory concentration (IC50) of 0.25 µM.

The compound `CC[C@H](C)[C@H](NC(=O)[C@H](CC(C)C)NC(=O)c1cnccn1)C(=O)N[C@@H](CC1CCCCC1)C(=O)N[C@@H](CC(F)F)C(=O)C(=O)NCC(=O)NS(=O)(=O)c1cccc(-c2ccccc2)c1` registered a 50% inhibitory concentration (IC50) of 0.06 µM. Compared with the last compound, the IC50 is about 4.2-fold lower.

Compound `CC[C@H](NC(=O)[C@H](CC1CCCCC1)NC(=O)[C@@H](NC(=O)[C@H](CC(C)C)NC(=O)c1cnccn1)[C@@H](C)CC)C(=O)C(=O)NCC(=O)NS(=O)(=O)Cc1ccccc1` had an IC50 of 12 µM.

Turning to `CC[C@H](C)[C@H](NC(=O)[C@H](CC(C)C)NC(=O)c1cnccn1)C(=O)N[C@@H](CC1CCCCC1)C(=O)N[C@@H](CC(F)F)C(=O)C(=O)NCC(=O)NS(=O)(=O)c1nnc(NC(=O)c2ccc(Cl)cc2)s1`, inhibition was half-maximal at 0.02 µM (IC50).

In turn, `CC[C@H](NC(=O)[C@H](CC1CCCCC1)NC(=O)[C@@H](NC(=O)[C@H](CC(C)C)NC(=O)c1cnccn1)[C@@H](C)CC)C(=O)C(=O)NCC(=O)NS(=O)(=O)c1cccc([N+](=O)[O-])c1` registered a half-maximal inhibitory concentration (IC50) of 0.41 µM.

Turning to `CC[C@H](NC(=O)[C@H](CC1CCCCC1)NC(=O)[C@@H](NC(=O)[C@H](CC(C)C)NC(=O)c1cnccn1)[C@@H](C)CC)C(=O)C(=O)NCC(=O)NS(C)(=O)=O`, inhibition was half-maximal at 25 µM (IC50).

In the case of `CC[C@H](NC(=O)[C@H](CC1CCCCC1)NC(=O)[C@@H](NC(=O)[C@H](CC(C)C)NC(=O)c1cnccn1)[C@@H](C)CC)C(=O)C(=O)NCC(=O)NS(=O)(=O)c1ccc([N+](=O)[O-])cc1`, the IC50 stood at 0.92 µM.

In the case of `CCCCCC(=O)Nc1nnc(S(=O)(=O)NC(=O)CNC(=O)C(=O)[C@H](CC(F)F)NC(=O)[C@H](CC2CCCCC2)NC(=O)[C@@H](NC(=O)[C@H](CC(C)C)NC(=O)c2cnccn2)[C@@H](C)CC)s1`, the IC50 came out at 0.02 µM.

In turn, `CC[C@H](NC(=O)[C@H](CC1CCCCC1)NC(=O)[C@@H](NC(=O)[C@H](CC(C)C)NC(=O)c1cnccn1)[C@@H](C)CC)C(=O)C(=O)NCC(=O)NS(=O)(=O)c1ccccc1` came in with a half-maximal inhibitory concentration (IC50) of 8.9 µM.

On to `CC[C@H](NC(=O)[C@H](CC1CCCCC1)NC(=O)[C@@H](NC(=O)[C@H](CC(C)C)NC(=O)c1cnccn1)[C@@H](C)CC)C(=O)C(=O)NCC(=O)NS(=O)(=O)c1cc(Cl)cc(S(=O)(=O)NC(=O)c2ccccc2)c1`, for which the IC50 was determined as 0.12 µM.

`CC[C@H](NC(=O)[C@H](CC1CCCCC1)NC(=O)[C@@H](NC(=O)[C@H](CC(C)C)NC(=O)c1cnccn1)[C@@H](C)CC)C(=O)C(=O)NCC(=O)O` (Pyrazinecarbonyl-LI[Cha][Abu(ψCOCO)]G-OH): it took 0.23 µM to reach half-maximal inhibition (IC50). Against the preceding compound, the IC50 is about 1.9-fold higher.

In the case of `CC[C@H](NC(=O)[C@H](CC1CCCCC1)NC(=O)[C@@H](NC(=O)[C@H](CC(C)C)NC(=O)c1cnccn1)[C@@H](C)CC)C(=O)C(=O)NCC(=O)NS(=O)(=O)c1ccc(-c2ccccc2)cc1`, inhibition was half-maximal at 2.4 µM (IC50).

In turn, `CC[C@H](NC(=O)[C@H](CC1CCCCC1)NC(=O)[C@@H](NC(=O)[C@H](CC(C)C)NC(=O)c1cnccn1)[C@@H](C)CC)C(=O)C(=O)NCc1nn[nH]n1` yielded an IC50 of 0.46 µM.

With `CC[C@H](C)[C@H](NC(=O)[C@H](CC(C)C)NC(=O)c1cnccn1)C(=O)N[C@@H](CC1CCCCC1)C(=O)N[C@@H](CC(F)F)C(=O)C(=O)NCc1nn[nH]n1`, it took 0.04 µM to reach half-maximal inhibition (IC50).

In turn, `CC[C@H](NC(=O)[C@H](CC1CCCCC1)NC(=O)[C@@H](NC(=O)[C@H](CC(C)C)NC(=O)c1cnccn1)[C@@H](C)CC)C(=O)C(=O)NCS(=O)(=O)O` returned a 50% inhibitory concentration (IC50) of 0.22 µM.

Compound `CC[C@H](C)[C@H](NC(=O)[C@H](CC(C)C)NC(=O)c1cnccn1)C(=O)N[C@@H](CC1CCCCC1)C(=O)N[C@@H](CC(F)F)C(=O)C(=O)NCC(=O)O` (Pyrazinecarbonyl-LI[Cha][X1]G-OH) came in with a 50% inhibitory concentration (IC50) of 0.06 µM.

The compound `CC[C@H](NC(=O)[C@H](CC1CCCCC1)NC(=O)[C@@H](NC(=O)[C@H](CC(C)C)NC(=O)c1cnccn1)[C@@H](C)CC)C(=O)C(=O)NCC(=O)NS(=O)(=O)c1cccc(-c2ccccc2)c1` came in with an IC50 of 0.64 µM.

In general, IC50 refers to the point on the concentration scale where inhibition reaches its midpoint.
